How the values were obtained:
[1] = system: false cleavers; test: Test Example 4: herbicidal effect by soil treatment (Table 19, symbol Q); format: in vivo, false cleavers (Galium spurium); details: amount of applied herbicide 320 g/ha
Method in brief: (§1)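 Soil-surface application: an emulsion agent diluted with water to the predetermined dose is sprayed uniformly over seeds lying under roughly 1.5 cm of sterilized diluvial soil. Boxes stay in a greenhouse at 25° C. to 30° C. Three weeks later, each species is graded on previously defined criteria.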

[2] = system: chickweed; test: Test Example 5: herbicidal effect by foliage application, plastic box (Table 20, symbol P); format: in vivo, common chickweed (Stellaria media); details: foliage application, 320 g/ha, three weeks after application
Method in brief: (§2)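 Sow seeds spot-wise in sterilized diluvial soil; cover with ~1.5 cm soil. Grow 14 days in greenhouse, 25° C. to 30° C. Spray foliage with emulsion diluted to predetermined amount. Rate effect after 3 weeks.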

[3] = system: oval-leafed pondweed; test: Test Example 1: herbicidal activity, application before weed generation under submerged conditions (Table 16, symbol C); format: in vivo, oval-leafed pondweed (Monochoria vaginalis); details: 320 g/ha applied herbicide
Method in brief: (§3)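 Emulsion formulation, water-diluted to set dose, was put onto the flooded surface (4 cm depth, alluvial soil) the same day weeds were sown and 2.5-leaf rice transplanted. After 3 weeks at 25-30 °C under glass, each species was rated 0 (≤5% kill) to 5 (≥90% kill).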

[4] = system: green foxtail; test: Test Example 5: herbicidal effect by foliage application, plastic box (Table 20, symbol G); format: in vivo, green foxtail (Setaria viridis); details: foliage application, 320 g/ha, three weeks after application
Method in brief: as §2

[5] = system: windgrass; test: Test Example 5: herbicidal effect by foliage application, plastic box (Table 20, symbol L); format: in vivo, windgrass (Apera spica-venti); details: foliage application, 320 g/ha, three weeks after application
Method in brief: as §2

[6] = system: redroot pigweed; test: Test Example 4: herbicidal effect by soil treatment (Table 19, symbol N); format: in vivo, redroot pigweed (Amaranthus retroflexus); details: amount of applied herbicide 320 g/ha
Method in brief: as §1

[7] = system: persian speedwell; test: Test Example 5: herbicidal effect by foliage application, plastic box (Table 20, symbol R); format: in vivo, Persian speedwell (Veronica persica); details: foliage application, 320 g/ha, three weeks after application
Method in brief: as §2

[8] = system: false cleavers; test: Test Example 5: herbicidal effect by foliage application, plastic box (Table 20, symbol Q); format: in vivo, false cleavers (Galium spurium); details: foliage application, 320 g/ha, three weeks after application
Method in brief: as §2

[9] = system: velvetleaf; test: Test Example 4: herbicidal effect by soil treatment (Table 19, symbol M); format: in vivo, velvetleaf (Abutilon theophrasti); details: amount of applied herbicide 320 g/ha
Method in brief: as §1

[10] = system: Italian ryegrass; test: Test Example 4: herbicidal effect by soil treatment (Table 19, symbol K); format: in vivo, Italian ryegrass (Lolium multiflorum); details: amount of applied herbicide 320 g/ha
Method in brief: as §1

[11] = system: lambsquarters; test: Test Example 5: herbicidal effect by foliage application, plastic box (Table 20, symbol O); format: in vivo, lambsquarters (Chenopodium album); details: foliage application, 320 g/ha, three weeks after application
Method in brief: as §2

[12] = system: wild oat; test: Test Example 4: herbicidal effect by soil treatment (Table 19, symbol I); format: in vivo, wild oat (Avena fatua); details: amount of applied herbicide 320 g/ha
Method in brief: as §1

[13] = system: barnyard grass; test: Test Example 4: herbicidal effect by soil treatment (Table 19, symbol H); format: in vivo, barnyard grass (Echinochloa crus-galli); details: amount of applied herbicide 320 g/ha
Method in brief: as §1

[14] = system: velvetleaf; test: Test Example 5: herbicidal effect by foliage application, plastic box (Table 20, symbol M); format: in vivo, velvetleaf (Abutilon theophrasti); details: foliage application, 320 g/ha, three weeks after application
Method in brief: as §2

[15] = system: Chinese sprangletop; test: Test Example 3: herbicidal effect by foliage application, Wagner pot (Table 18, symbol D); format: in vivo, chinese sprangletop (Leptochloa chinensis); details: 320 g/ha
Method in brief: (§4)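 Plants were sown in alluvial soil held under 0.1–0.5 cm standing water and grown 14 days in a greenhouse at 25–30 °C. An emulsifiable formulation, water-diluted to the set dose, was then sprayed onto the foliage, and effects were scored three weeks later using previously defined criteria.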

[16] = system: late watergrass; test: Test Example 1: herbicidal activity, application before weed generation under submerged conditions (Table 16, symbol A); format: in vivo, late watergrass (Echinochloa oryzicola); details: 320 g/ha applied herbicide
Method in brief: as §3

[17] = system: Japanese bulrush; test: Test Example 1: herbicidal activity, application before weed generation under submerged conditions (Table 16, symbol B); format: in vivo, Japanese bulrush (Schoenoplectus juncoides); details: 320 g/ha applied herbicide
Method in brief: as §3

[18] = system: wild oat; test: Test Example 5: herbicidal effect by foliage application, plastic box (Table 20, symbol I); format: in vivo, wild oat (Avena fatua); details: foliage application, 320 g/ha, three weeks after application
Method in brief: as §2

[19] = system: green foxtail; test: Test Example 4: herbicidal effect by soil treatment (Table 19, symbol G); format: in vivo, green foxtail (Setaria viridis); details: amount of applied herbicide 320 g/ha
Method in brief: as §1

[20] = system: southern crabgrass; test: Test Example 5: herbicidal effect by foliage application, plastic box (Table 20, symbol F); format: in vivo, southern crabgrass (Digitaria ciliaris); details: foliage application, 320 g/ha, three weeks after application
Method in brief: as §2

[21] = system: barnyard grass; test: Test Example 3: herbicidal effect by foliage application, Wagner pot (Table 18, symbol H); format: in vivo, barnyard grass (Echinochloa crus-galli); details: 320 g/ha
Method in brief: as §4

[22] = system: redroot pigweed; test: Test Example 5: herbicidal effect by foliage application, plastic box (Table 20, symbol N); format: in vivo, redroot pigweed (Amaranthus retroflexus); details: foliage application, 320 g/ha, three weeks after application
Method in brief: as §2

[23] = system: barnyard grass; test: Test Example 5: herbicidal effect by foliage application, plastic box (Table 20, symbol H); format: in vivo, barnyard grass (Echinochloa crus-galli); details: foliage application, 320 g/ha, three weeks after application
Method in brief: as §2

[24] = system: southern crabgrass; test: Test Example 4: herbicidal effect by soil treatment (Table 19, symbol F); format: in vivo, southern crabgrass (Digitaria ciliaris); details: amount of applied herbicide 320 g/ha
Method in brief: as §1

[25] = system: Italian ryegrass; test: Test Example 5: herbicidal effect by foliage application, plastic box (Table 20, symbol K); format: in vivo, Italian ryegrass (Lolium multiflorum); details: foliage application, 320 g/ha, three weeks after application
Method in brief: as §2

[26] = system: chickweed; test: Test Example 4: herbicidal effect by soil treatment (Table 19, symbol P); format: in vivo, common chickweed (Stellaria media); details: amount of applied herbicide 320 g/ha
Method in brief: as §1

[27] = system: rice flat sedge; test: Test Example 3: herbicidal effect by foliage application, Wagner pot (Table 18, symbol E); format: in vivo, rice flat sedge (Cyperus iria); details: 320 g/ha
Method in brief: as §4

[28] = system: persian speedwell; test: Test Example 4: herbicidal effect by soil treatment (Table 19, symbol R); format: in vivo, Persian speedwell (Veronica persica); details: amount of applied herbicide 320 g/ha
Method in brief: as §1

[29] = system: lambsquarters; test: Test Example 4: herbicidal effect by soil treatment (Table 19, symbol O); format: in vivo, lambsquarters (Chenopodium album); details: amount of applied herbicide 320 g/ha
Method in brief: as §1

[30] = system: blackgrass; test: Test Example 5: herbicidal effect by foliage application, plastic box (Table 20, symbol J); format: in vivo, blackgrass (Alopecurus myosuroides); details: foliage application, 320 g/ha, three weeks after application
Method in brief: as §2

[31] = system: windgrass; test: Test Example 4: herbicidal effect by soil treatment (Table 19, symbol L); format: in vivo, windgrass (Apera spica-venti); details: amount of applied herbicide 320 g/ha
Method in brief: as §1

[32] = system: blackgrass; test: Test Example 4: herbicidal effect by soil treatment (Table 19, symbol J); format: in vivo, blackgrass (Alopecurus myosuroides); details: amount of applied herbicide 320 g/ha
Method in brief: as §1

| SMILES | herbicidal effect rating, Q: false cleavers [1] | herbicidal effect grade, P: chickweed [2] | Herbicidal effect on C: oval-leafed pondweed (grade 0-5) [3] | herbicidal effect grade, G: green foxtail [4] | herbicidal effect grade, L: windgrass [5] | herbicidal effect rating, N: redroot pigweed [6] | herbicidal effect grade, R: persian speedwell [7] | herbicidal effect grade, Q: false cleavers [8] | herbicidal effect rating, M: velvetleaf [9] | herbicidal effect rating, K: Italian ryegrass [10] | herbicidal effect grade, O: lambsquarters [11] | herbicidal effect rating, I: wild oat [12] | herbicidal effect rating, H: barnyard grass [13] | herbicidal effect grade, M: velvetleaf [14] | herbicidal effect on D (Chinese sprangletop), rating 0-5 [15] | Herbicidal effect on A: late watergrass (grade 0-5) [16] | Herbicidal effect on B: Japanese bulrush (grade 0-5) [17] | herbicidal effect grade, I: wild oat [18] | herbicidal effect rating, G: green foxtail [19] | herbicidal effect grade, F: southern crabgrass [20] | other results |
| --- | --- | --- | --- | --- | --- | --- | --- | --- | --- | --- | --- | --- | --- | --- | --- | --- | --- | --- | --- | --- | --- |
| CCCC(=O)Oc1c(C)nn(C)c(=O)c1-c1c(-c2ccc(F)cc2OCC)sc2ccccc12 [1-062] | 5 (Herbicidal rate of 90% or more (almost completely withered)) | 5 (Herbicidal rate of 90% or more (almost completely withered)) | 0 (Herbicidal rate of 5% or less (almost no effect)) | 5 (Herbicidal rate of 90% or more (almost completely withered)) | 5 (Herbicidal rate of 90% or more (almost completely withered)) | 5 (Herbicidal rate of 90% or more (almost completely withered)) | 5 (Herbicidal rate of 90% or more (almost completely withered)) | 5 (Herbicidal rate of 90% or more (almost completely withered)) | 3 (Herbicidal rate of 40% or more and less than 70%) | 4 (Herbicidal rate of 70% or more and less than 90%) | 3 (Herbicidal rate of 40% or more and less than 70%) | 1 (Herbicidal rate of 5% or more and less than 20%) | 4 (Herbicidal rate of 70% or more and less than 90%) | 5 (Herbicidal rate of 90% or more (almost completely withered)) | 3 (Herbicidal rate of 40% or more and less than 70%) | 2 (Herbicidal rate of 20% or more and less than 40%) | 2 (Herbicidal rate of 20% or more and less than 40%) | 3 (Herbicidal rate of 40% or more and less than 70%) | 4 (Herbicidal rate of 70% or more and less than 90%) | 5 (Herbicidal rate of 90% or more (almost completely withered)) | herbicidal effect on H (barnyard grass), rating 0-5 [21]: 5 (Herbicidal rate of 90% or more (almost completely withered)); herbicidal effect grade, N: redroot pigweed [22]: 5 (Herbicidal rate of 90% or more (almost completely withered)); herbicidal effect grade, H: barnyard grass [23]: 4 (Herbicidal rate of 70% or more and less than 90%); herbicidal effect rating, F: southern crabgrass [24]: 5 (Herbicidal rate of 90% or more (almost completely withered)); herbicidal effect grade, K: Italian ryegrass [25]: 3 (Herbicidal rate of 40% or more and less than 70%); herbicidal effect rating, P: chickweed [26]: 3 (Herbicidal rate of 40% or more and less than 70%); herbicidal effect on E (rice flat sedge), rating 0-5 [27]: 5 (Herbicidal rate of 90% or more (almost completely withered)); herbicidal effect rating, R: persian speedwell [28]: 4 (Herbicidal rate of 70% or more and less than 90%); herbicidal effect rating, O: lambsquarters [29]: 0 (Herbicidal rate of 5% or less (almost no effect)); herbicidal effect grade, J: blackgrass [30]: 5 (Herbicidal rate of 90% or more (almost completely withered)); herbicidal effect rating, L: windgrass [31]: 3 (Herbicidal rate of 40% or more and less than 70%); herbicidal effect rating, J: blackgrass [32]: 5 (Herbicidal rate of 90% or more (almost completely withered)) |
| Cc1ccc(-c2sc3ccccc3c2-c2c(O)c(C)nn(C)c2=O)cc1C [1-065] | 0 (Herbicidal rate of 5% or less (almost no effect)) | 5 (Herbicidal rate of 90% or more (almost completely withered)) | 0 (Herbicidal rate of 5% or less (almost no effect)) | 3 (Herbicidal rate of 40% or more and less than 70%) | 0 (Herbicidal rate of 5% or less (almost no effect)) | 0 (Herbicidal rate of 5% or less (almost no effect)) | 5 (Herbicidal rate of 90% or more (almost completely withered)) | 3 (Herbicidal rate of 40% or more and less than 70%) | 0 (Herbicidal rate of 5% or less (almost no effect)) | 0 (Herbicidal rate of 5% or less (almost no effect)) | 3 (Herbicidal rate of 40% or more and less than 70%) | 0 (Herbicidal rate of 5% or less (almost no effect)) | 0 (Herbicidal rate of 5% or less (almost no effect)) | 5 (Herbicidal rate of 90% or more (almost completely withered)) | 3 (Herbicidal rate of 40% or more and less than 70%) | 3 (Herbicidal rate of 40% or more and less than 70%) | 0 (Herbicidal rate of 5% or less (almost no effect)) | 0 (Herbicidal rate of 5% or less (almost no effect)) | 0 (Herbicidal rate of 5% or less (almost no effect)) | 3 (Herbicidal rate of 40% or more and less than 70%) | herbicidal effect on H (barnyard grass), rating 0-5 [21]: 3 (Herbicidal rate of 40% or more and less than 70%); herbicidal effect grade, N: redroot pigweed [22]: 3 (Herbicidal rate of 40% or more and less than 70%); herbicidal effect grade, H: barnyard grass [23]: 3 (Herbicidal rate of 40% or more and less than 70%); herbicidal effect rating, F: southern crabgrass [24]: 0 (Herbicidal rate of 5% or less (almost no effect)); herbicidal effect grade, K: Italian ryegrass [25]: 2 (Herbicidal rate of 20% or more and less than 40%); herbicidal effect rating, P: chickweed [26]: 3 (Herbicidal rate of 40% or more and less than 70%); herbicidal effect on E (rice flat sedge), rating 0-5 [27]: 5 (Herbicidal rate of 90% or more (almost completely withered)); herbicidal effect rating, R: persian speedwell [28]: 4 (Herbicidal rate of 70% or more and less than 90%); herbicidal effect rating, O: lambsquarters [29]: 0 (Herbicidal rate of 5% or less (almost no effect)); herbicidal effect grade, J: blackgrass [30]: 0 (Herbicidal rate of 5% or less (almost no effect)); herbicidal effect rating, L: windgrass [31]: 0 (Herbicidal rate of 5% or less (almost no effect)); herbicidal effect rating, J: blackgrass [32]: 0 (Herbicidal rate of 5% or less (almost no effect)) |
